Values of other authors, collected in patent US11166911B2, “Parenteral dosage form of amiodarone” (SUN PHARMACEUTICAL INDUSTRIES LIMITED, priority 2016, dated 2021).

Conditions: Parmar et al. 1997

- Degradation upon storage at higher temperatures: degrade significantly
Compound: CCCCc1oc2ccccc2c1C(=O)c1cc(I)c(OCCN(CC)CC)c(I)c1 [Amidarone]
